According to US6753331B1, “Heterocyclic derivatives which inhibit factor Xa” (AstraZeneca AB, priority 1998, dated 2004):

Legend:
human thrombin = assay: test b) C2 (PT) against human thrombin; format: biochemical; details: PT = prothrombin time
Procedure: b) Measurement of Thrombin Inhibition
The procedure of method a) is repeated except that human thrombin (0.005 Units/ml) and the chromogenic substrate S-2238 (KabiVitrum AB, 7 μM) are employed.
c) Measurement of Anticoagulant Activity
An in vitro assay whereby human, rat or rabbit venous blood is collected and added directly to a sodium citrate solution (3.2 g/100 ml, 9 parts blood to 1 part citrate solution). Blood plasma is prepared by centrifugation (1000 g, 15 minutes) and stored at 2-4° C. Conventional prothrombin time (PT) tests are carried out in the presence of various concentrations of a test compound and the concentration of test compound required to double the clotting time, hereinafter referred to as CT2, is determined. In the PT test, the test compound and blood plasma are incubated at 37° C. for 10 minutes. Tissue thromboplastin with calcium (Sigma Limited, Poole, England) is added and fibrin formation and the time required for a clot to form are determined.

Row | Compound | melting point [°C] | C2 (PT) against human thrombin (human thrombin) [µM]
1 | O=C(c1ccc(-c2ccncn2)cc1)N1CCN(S(=O)(=O)c2cc3cc(Cl)ccc3[nH]2)CC1 [Example 4, 1-(5-Chloroindol-2-ylsulphonyl)-4-[4-(4-pyrimidyl)benzoyl]piperazine] | 229 to 230 | 
2 | O=C(c1ccc(-c2ccncc2)cc1)N1CCN(S(=O)(=O)c2cc3cc(Cl)ccc3[nH]2)CC1 [Example 3, 1-(5-chloroindol-2-ylsulphonyl)-4-[4-(4-pyridyl)benzoyl]piperazine] | 185 to 188 | 
3 | O=C(c1ccc(-c2ccncc2)cc1)N1CCN(S(=O)(=O)c2cc3cc(Cl)ccc3o2)CC1 [Example 1, 1-(5-Chlorobenzo[b]furan-2-ylsulphonyl)-4-[4-(4-pyridyl)benzoyl]piperazine] |  | 15

Further lines, with some results ahead:

Row | melting point [°C] | Compound | C2 (PT) against human thrombin (human thrombin) [µM]
4 | 170 to 172 | O=C(c1ccc(-c2ccnnc2)cc1)N1CCN(S(=O)(=O)c2cc3cc(Cl)ccc3[nH]2)CC1 [Example 5, 1-(5-Chloroindol-2-ylsulphonyl)-4-[4-(4-pyridazinyl)benzoyl]piperazine] | 
5 | 242 to 244 | O=C(c1ccc(-c2ccncc2)cc1)N1CCN(S(=O)(=O)c2nc3ccc(Cl)cc3[nH]2)CC1 [Example 8, 1-(5-chlorobenzimidazol-2-ylsulphonyl)-4-[4-(4-pyridyl)benzoyl]piperazine] | 
6 | 231 to 234 | O=C(c1ccc(-c2ccncc2)cc1)N1CCN(S(=O)(=O)c2cc3ccc(Cl)cc3[nH]2)CC1 [Example 7, 1-(6-chloroindol-2-ylsulphonyl)-4-[4-(4-pyridyl)benzoyl]piperazine] | 
7 | 155 to 165 | O=C(c1ccc(-n2ccnc2)cc1)N1CCN(S(=O)(=O)c2cc3cc(Cl)ccc3[nH]2)CC1 [Example 6, 1-(5-Chloroindol-2-ylsulphonyl)-4-[4-(1-imidazolyl)benzoyl]piperazine] | 
